Measurements taken from PubChem BioAssay AID623906 (Vanderbilt Specialized Chemistry Center, 2012).

Biological target: Metabotropic glutamate receptor 4 (Rattus norvegicus) (UniProt P31423)
Test: PubChem AID 623906
Conditions: rat mGlu4 cells, thallium flux, glutamate CRC fold shift, at 10 µM, stronger effect = higher value

Sequence of Metabotropic glutamate receptor 4 (Rattus norvegicus) (P31423 whole entry, looked up): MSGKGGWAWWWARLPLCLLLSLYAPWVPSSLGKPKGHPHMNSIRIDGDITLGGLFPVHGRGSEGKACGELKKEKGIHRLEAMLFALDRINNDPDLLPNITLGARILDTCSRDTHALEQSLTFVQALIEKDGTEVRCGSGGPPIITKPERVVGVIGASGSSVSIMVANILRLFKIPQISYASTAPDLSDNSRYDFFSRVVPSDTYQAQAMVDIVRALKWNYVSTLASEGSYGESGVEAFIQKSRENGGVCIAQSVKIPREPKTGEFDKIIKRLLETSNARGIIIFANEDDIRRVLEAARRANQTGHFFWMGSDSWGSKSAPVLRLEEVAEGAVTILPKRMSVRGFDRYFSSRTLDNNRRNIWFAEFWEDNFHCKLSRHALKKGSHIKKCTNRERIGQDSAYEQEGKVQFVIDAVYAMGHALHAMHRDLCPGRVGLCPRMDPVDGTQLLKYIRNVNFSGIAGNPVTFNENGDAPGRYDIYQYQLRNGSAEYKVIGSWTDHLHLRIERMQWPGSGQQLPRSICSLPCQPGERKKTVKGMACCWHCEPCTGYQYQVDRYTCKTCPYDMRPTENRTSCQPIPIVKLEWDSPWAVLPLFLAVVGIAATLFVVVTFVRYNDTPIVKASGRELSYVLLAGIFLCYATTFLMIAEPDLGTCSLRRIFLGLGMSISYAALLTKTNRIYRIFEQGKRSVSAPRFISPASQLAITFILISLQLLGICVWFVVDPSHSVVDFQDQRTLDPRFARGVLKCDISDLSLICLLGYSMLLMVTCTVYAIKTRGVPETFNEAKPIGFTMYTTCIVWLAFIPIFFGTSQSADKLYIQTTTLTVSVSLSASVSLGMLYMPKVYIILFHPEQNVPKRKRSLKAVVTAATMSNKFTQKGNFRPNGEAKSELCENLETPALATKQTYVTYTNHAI

Q: Which results are given for `O=C(Nc1cccc(Cl)c1)c1ccccn1`?
A: fold shift: 16.5; glutamate max response (glutamate max with compound): 96.9%
